Laboratory results taken from ChEMBL document CHEMBL1201862, “PubChem BioAssay data set” (2004).
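48-hour exposure; five concentrations; linearly interpolated endpoints. Abbreviation: GI50, concentration required for 50% inhibition of growth.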 Activity calls are given as the source filed them. Cut-off read from the data, not from the text of the source: active = GI50 up to about 1.1 µM and inactive = higher.

Tests used:
Assay in all cases: NCI anticancer screen, dose series, 48 h
[1] = tested on: SK-MEL-2
[2] = tested on: LOX IMVI
[3] = tested on: OVCAR-8
[4] = tested on: SK-MEL-5
[5] = tested on: SR
[6] = tested on: UO-31
[7] = tested on: NCI-H226
[8] = tested on: CCRF-CEM
[9] = tested on: U-251
[10] = tested on: HOP-92
[11] = tested on: UACC-62
[12] = tested on: OVCAR-5
[13] = tested on: SNB-19
[14] = tested on: HCT-15
[15] = tested on: HL-60
[16] = tested on: RXF 393

CC(C)OP(=O)(OC(C)C)/C(=N/Nc1ccc([N+](=O)[O-])cc1)NCCN/C(=N\Nc1ccc([N+](=O)[O-])cc1)P(=O)(OC(C)C)OC(C)C
GI50 [1]: 4.92 µM (inactive)
GI50 [2]: 8.89 µM (inactive)
GI50 [3]: 4.55 µM (inactive)
GI50 [4]: 6.22 µM (inactive)
GI50 [5]: 4.03 µM (inactive)
GI50 [6]: 4.4 µM (inactive)
GI50 [7]: 3.94 µM (inactive)
GI50 [8]: 2.84 µM (inactive)
GI50 [9]: 3.3 µM (inactive)
GI50 [10]: 3.35 µM (inactive)
GI50 [11]: 2.15 µM (inactive)
GI50 [12]: 31.6 µM (inactive)
GI50 [13]: 3.35 µM (inactive)
GI50 [14]: 4.61 µM
GI50 [15]: 3.94 µM (inactive)

C=CCC12CC(=O)CCC1c1ccc(OC)cc1C2=O (stereo not given)
GI50 [1]: > 100 µM (inactive)
GI50 [2]: > 100 µM (inactive)
GI50 [3]: > 100 µM (inactive)
GI50 [4]: > 100 µM (inactive)
GI50 [5]: > 100 µM (inactive)
GI50 [6]: > 100 µM (inactive)
GI50 [16]: > 100 µM (inactive)
GI50 [7]: > 100 µM (inactive)
GI50 [8]: > 100 µM (inactive)
GI50 [9]: > 100 µM (inactive)
GI50 [10]: > 100 µM (inactive)
GI50 [11]: > 100 µM (inactive)
GI50 [12]: > 100 µM (inactive)
GI50 [13]: > 100 µM (inactive)
GI50 [14]: > 100 µM
GI50 [15]: > 100 µM (inactive)

Cc1ccc(NC(=O)C(=O)C(C#N)c2nc(-c3ccc(-c4ccccc4)cc3)cs2)c(C)c1 (stereo not given)
GI50 [1]: > 100 µM (inactive)
GI50 [2]: > 100 µM (inactive)
GI50 [3]: > 100 µM (inactive)
GI50 [4]: > 100 µM (inactive)
GI50 [5]: > 100 µM (inactive)
GI50 [6]: > 100 µM (inactive)
GI50 [16]: > 100 µM (inactive)
GI50 [7]: > 100 µM (inactive)
GI50 [9]: 47.3 µM (inactive)
GI50 [11]: > 100 µM (inactive)
GI50 [12]: > 100 µM (inactive)
GI50 [13]: > 100 µM (inactive)
GI50 [14]: > 100 µM

N#CC12CCC(O)C(CC1)C2=O (stereo not given)
GI50 [1]: > 100 µM (inactive)
GI50 [2]: 21.5 µM (inactive)
GI50 [3]: > 100 µM (inactive)
GI50 [4]: > 100 µM (inactive)
GI50 [5]: 27.3 µM (inactive)
GI50 [6]: > 100 µM (inactive)
GI50 [16]: > 100 µM (inactive)
GI50 [7]: > 100 µM (inactive)
GI50 [8]: > 100 µM (inactive)
GI50 [9]: > 100 µM (inactive)
GI50 [11]: > 100 µM (inactive)
GI50 [12]: > 100 µM (inactive)
GI50 [13]: > 100 µM (inactive)
GI50 [14]: > 100 µM
GI50 [15]: > 100 µM (inactive)

Cn1nc(-c2ccccc2)c2c(/C=C/c3ccccc3)onc2c1=O
GI50 [1]: > 100 µM (inactive)
GI50 [2]: > 100 µM (inactive)
GI50 [3]: 33.7 µM (inactive)
GI50 [4]: > 100 µM (inactive)
GI50 [5]: 95.7 µM (inactive)
GI50 [6]: 6.82 µM (inactive)
GI50 [16]: 46.1 µM (inactive)
GI50 [7]: > 100 µM (inactive)
GI50 [8]: > 100 µM (inactive)
GI50 [9]: 64 µM (inactive)
GI50 [10]: 33 µM (inactive)
GI50 [11]: 23.8 µM (inactive)
GI50 [12]: > 100 µM (inactive)
GI50 [13]: 67.3 µM (inactive)
GI50 [14]: > 100 µM
GI50 [15]: > 100 µM (inactive)

COc1cc2c(cc1OC)C(CC1=C(c3ccccc3)CN3CCc4cc(OC)c(OC)cc4C3C1)NCC2 (stereo not given)
GI50 [1]: 20.5 µM (inactive)
GI50 [2]: 15.8 µM (inactive)
GI50 [3]: 19.3 µM (inactive)
GI50 [4]: 12.4 µM (inactive)
GI50 [6]: 11.1 µM (inactive)
GI50 [16]: 2.66 µM (inactive)
GI50 [7]: 18.9 µM (inactive)
GI50 [8]: 14.6 µM (inactive)
GI50 [9]: 15.2 µM (inactive)
GI50 [11]: 20.4 µM (inactive)
GI50 [12]: 18.5 µM (inactive)
GI50 [13]: 19.6 µM (inactive)
GI50 [14]: 17.7 µM
GI50 [15]: 12.2 µM (inactive)

CC(=O)OC1=C2CC[C@@H]3C(CC[C@@]4(C)C3CC[C@@H]4OC(C)=O)[C@@]2(C)CC(C#N)C1=O (stereo not given in full)
GI50 [1]: 4.32 µM (inactive)
GI50 [2]: 16.8 µM (inactive)
GI50 [3]: 30.9 µM (inactive)
GI50 [4]: 20.2 µM (inactive)
GI50 [6]: 7.69 µM (inactive)
GI50 [16]: 23.4 µM (inactive)
GI50 [7]: 34.7 µM (inactive)
GI50 [8]: 20.2 µM (inactive)
GI50 [9]: 27.4 µM (inactive)
GI50 [10]: 15.1 µM (inactive)
GI50 [11]: 12.8 µM (inactive)
GI50 [12]: 26.4 µM (inactive)
GI50 [13]: 25.2 µM (inactive)
GI50 [14]: 28.9 µM
GI50 [15]: 16 µM (inactive)

CC(C)N1C(C)[C@@H](c2ccccc2)O[P@@]1(=O)CC1=CCCCC1 (stereo not given in full)
GI50 [1]: > 100 µM (inactive)
GI50 [2]: > 100 µM (inactive)
GI50 [3]: > 100 µM (inactive)
GI50 [4]: 55.6 µM (inactive)
GI50 [5]: 69.5 µM (inactive)
GI50 [6]: > 100 µM (inactive)
GI50 [16]: 68.7 µM (inactive)
GI50 [7]: > 100 µM (inactive)
GI50 [8]: 48.5 µM (inactive)
GI50 [9]: > 100 µM (inactive)
GI50 [10]: 45.8 µM (inactive)
GI50 [11]: 47.1 µM (inactive)
GI50 [12]: > 100 µM (inactive)
GI50 [14]: > 100 µM
GI50 [15]: 24.1 µM (inactive)

CCOC(=O)N[C@@H]1C2CC(=O)C(O2)[C@@H]1OC (stereo not given in full)
GI50 [1]: > 100 µM (inactive)
GI50 [2]: > 100 µM (inactive)
GI50 [3]: > 100 µM (inactive)
GI50 [4]: > 100 µM (inactive)
GI50 [5]: > 100 µM (inactive)
GI50 [6]: > 100 µM (inactive)
GI50 [16]: > 100 µM (inactive)
GI50 [7]: > 100 µM (inactive)
GI50 [8]: > 100 µM (inactive)
GI50 [9]: > 100 µM (inactive)
GI50 [10]: > 100 µM (inactive)
GI50 [11]: > 100 µM (inactive)
GI50 [12]: > 100 µM (inactive)
GI50 [13]: > 100 µM (inactive)
GI50 [14]: > 100 µM
GI50 [15]: > 100 µM (inactive)
